Usually T/C stands for the ratio of treated to control. As usually defined, the fraction unbound is the share of the substance not bound to proteins or other matrix. A higher fraction unbound goes with weak binding.

The source of these data is patent US20230331739A1, “INDOLO HEPTAMYL OXIME ANALOG CRYSTAL AS PARP INHIBITOR AND METHOD FOR PREPARING SAME” (CHIA TAI TIANQING PHARMACEUTICAL GROUP CO., LTD., priority 2020, published 2023).

A short description of data set [1]: Metabolic stability in liver microsomes, human. The note with it: 1 μM, 0.5 mg/mL. Type of data set: in vitro ADME. As to the method:
Objective: To test the metabolic stability of the test compound in liver microsomes of three species.
Procedures: 1 μM test compound and microsomes (0.5 mg/mL) were incubated at 37° C. in the presence of an NADPH regeneration system. Positive controls were testosterone ([…]), propylamine propiophenone (2D6 substrate) and diclofenac (2C9 substrate). At 37° C., positive controls were incubated with microsomes (0.5 mg/mL) in the presence of an NADPH regeneration system. The reaction was stopped by direct mixing of the sample with cold acetonitrile containing an internal standard at various time points (0, 5, 10, 20, 30 and 60 min). The compound and microsomes were incubated for 60 min in the absence of an NADPH regeneration system. One replicate (n=1) was set at each time point. The samples were analyzed by LC/MS/MS; the concentration of the compound was characterized by the ratio of the analyte peak area to the internal standard peak area.
(Liver microsomes are vesicles of endoplasmic reticulum, rich in cytochrome P450 enzymes.)

Data set [2] deals with human breast cancer MDA-MB-436 cell xenograft tumor. The experiment in a line: In vivo pharmacodynamic study in subcutaneous MDA-MB-436 xenograft tumor model. Also noted: species or system BALB/c nude mouse. The note with it: for Tumor volume (day 27): Mean ± SEM; for T/C / TGI: day 27. The source says:
Objective: To study the in vivo efficacy of the test compound in BALB/c nude mouse model with subcutaneous human breast cancer MDA-MB-436 cell xenograft tumor.
Materials: Age and body weight: female BALB/c nude mice, aged 6-8 weeks, 18-22 g. The study started after 3-7 days of adaptive feeding. The animal information card of each cage was labeled with the following information about the animals: number, sex, strain, receipt date, regime, study number, group and start of treatment. All the cages, padding and drinking water were sterilized before use. The cages, feed and drinking water were refreshed twice a week. The animals were identified with ear tags. Test samples: Nirapariband and compound 1. All the test samples were prepared with 10% DMSO+90% (20% HP-β-CD) as vehicle, and the blank control group was administered with the vehicle alone.
1. Cell culturing: Human breast cancer MDA-MB-436 cells (ATCC, Manassas, VA, catalog No.: HTB-130) were cultured in an RPMI-1640 culture medium containing 10% fetal bovine serum and 1% Anti-anti through in vitro monolayer culture in an incubator at 37° C./5% CO2. The cells were digested with trypsin-EDTA twice a week for passaging as per conventional practice. At a cell saturation of 80%-90% and a required number, the cells were collected, counted and grafted.
2. Tumor cell grafting (tumor grafting): 0.2 mL (1×10^7 cells) of MDA-MB-436 cells (along with matrigel in a volume ratio of 1:1) was subcutaneously grafting on the right back of each mouse, and the mice were randomly divided into groups for administration after the mean tumor volume was approximately 318 mm^3.
3. Daily observation of animals: the animals were monitored daily for health and death, and routine examinations include observation of the effect on tumor growth and the therapy on the daily performance of the animals, such as behavioral activities, food and water intake, change in body weight, appearance, or other abnormal conditions.
4. Tumor measurement and experimental indexes: the experimental indexes were to investigate whether the tumor growth was inhibited or delayed or the tumor was cured. Tumor diameters were measured twice weekly using a vernier caliper. The tumor volume was calculated using the following formula: V=0.5 a×b^2, where a and b represent the long diameter and short diameter of the tumor, respectively. The anti-tumor efficacy of the compound was evaluated by TGI (%) or relative tumor proliferation rate T/C (%). TGI (%) refers to the tumor growth inhibition. Calculation of TGI (%): TGI (%)=[(1−(mean tumor volume at the end of administration of a treatment group−mean tumor volume at the start of administration of the treatment group))/(mean tumor volume at the end of treatment of the solvent control group−mean tumor volume at the start of treatment of the solvent control group)]×100%. The calculation formula for relative tumor proliferation rate T/C (%) was as follows: T/C (%)=TRTV/CRTV×100% (TRTV: RTV of treatment group; CRTV: RTV of negative control group). Relative tumor volume (RTV) was calculated based on the results of tumor measurement. The calculation formula was: RTV=Vt/V0, where V0 was the mean tumor volume measured at the time of grouping and administration (i.e., do), Vt was the mean tumor volume at a certain measurement, and the data of TRTV and CRTV were obtained on the same day.
5. Statistical analysis: including mean and standard error of mean (SEM) of tumor volume at each time point in each group. […] The experimental data were analyzed using one-way ANOVA and Games-Howell method. All the data were analyzed using SPSS 17.0. p<0.05 was defined as significance.

Data set [3] is described as follows: Protein binding rate in plasma (equilibrium dialysis), SD rat. Type of data set: in vitro ADME. The settings on record: 4 h dialysis. As for the experimental part:
The protein binding rates of the compound disclosed herein in plasma of human, CD-1 mice and SD rats were determined. 796 μL of blank plasma was taken from human, CD-1 mice or SD rats, and 4 μL of test compound working solution (400 μM) or warfarin working solution (400 μM) was added to achieve a final concentration of 2 μM of both the test compound and the warfarin in the plasma sample. The samples were mixed well. The final concentration of organic phase DMSO was 0.5%; 50 μL of test compound and warfarin plasma sample was pipetted into a sample receiving plate (in triplicate), and a corresponding volume of blank plasma or buffer was immediately added such that the final volume in each sample well was 100 μL. The volume ratio of plasma to dialysis buffer was 1:1. […] All samples were subjected to LC/MS analysis after protein precipitation, and the protein binding rates and the recovery rates were calculated by the following formulas: protein unbinding rate (%)=100× drug concentration passing through dialysis membrane/drug concentration not passing through dialysate; protein binding rate (%)=100−protein unbinding rate (%); recovery rate (%)=100×(drug concentration passing through dialysis membrane+drug concentration not passing through dialysate)/total drug concentration before dialysis.

With `C[C@]1(c2ccc(-c3[nH]c4cc(F)cc5c4c3CONC5=O)cc2)CCCN1` [Compound 1], in data set [1], the “Residual content after 60 min of incubation” value turned out to be 35.9%. The results for the “Tumor volume (day 27)” value in data set [2] (12.5 mg/kg PO QD × 28 days), in data set [2] (25 mg/kg PO QD × 28 days) and in data set [2] (50 mg/kg PO QD × 28 days) were 377 ± 149 mm^3, 132 ± 32 mm^3 and 91 ± 14 mm^3, respectively. Also, the figures for the T/C in data set [2] (12.5 mg/kg PO QD × 28 days), in data set [2] (25 mg/kg PO QD × 28 days) and in data set [2] (50 mg/kg PO QD × 28 days) were 23.79%, 8.31% and 5.76%, respectively. Moreover, the TGI worked out at 95.34% in data set [2] (12.5 mg/kg PO QD × 28 days), 114.69% in data set [2] (25 mg/kg PO QD × 28 days) and 117.86% in data set [2] (50 mg/kg PO QD × 28 days). The compound also had a fraction unbound at 4 h, 2 μM in data set [3] of 0.077.
